# Patent US11268069B2, “Reprogramming methods and cell culture platforms” (Fate Therapeutics, Inc., priority 2014, dated 2022)
# System: hiPSC clone FTi111
# Test: Thaw of hiPSC clone FTi111 into various culture environments
# Format: cell-based, human
# Conditions: conventional culture with feeder cells
compound,measurement,value
O=C(NCc1ccccc1)c1csc(Nc2ccncn2)n1 [Thiazovivin],recovery of hiPSC colonies post thaw,only recovered in the presence of Thiazovivin
